In ChEMBL document CHEMBL4342498, “Design and Discovery of an Orally Efficacious Spiroindolinone-Based Tankyrase Inhibitor for the Treatment of Colon Cancer” (J Med Chem, 2020):
Values after ≈ are worked out from the molar mass of the structure shown.

Tests used:
[1] = biological target: T1, Tankyrase 1/2 (Homo sapiens, UniProt Q9H2K2+O95271)
T1 sequence (Q9H2K2 whole entry): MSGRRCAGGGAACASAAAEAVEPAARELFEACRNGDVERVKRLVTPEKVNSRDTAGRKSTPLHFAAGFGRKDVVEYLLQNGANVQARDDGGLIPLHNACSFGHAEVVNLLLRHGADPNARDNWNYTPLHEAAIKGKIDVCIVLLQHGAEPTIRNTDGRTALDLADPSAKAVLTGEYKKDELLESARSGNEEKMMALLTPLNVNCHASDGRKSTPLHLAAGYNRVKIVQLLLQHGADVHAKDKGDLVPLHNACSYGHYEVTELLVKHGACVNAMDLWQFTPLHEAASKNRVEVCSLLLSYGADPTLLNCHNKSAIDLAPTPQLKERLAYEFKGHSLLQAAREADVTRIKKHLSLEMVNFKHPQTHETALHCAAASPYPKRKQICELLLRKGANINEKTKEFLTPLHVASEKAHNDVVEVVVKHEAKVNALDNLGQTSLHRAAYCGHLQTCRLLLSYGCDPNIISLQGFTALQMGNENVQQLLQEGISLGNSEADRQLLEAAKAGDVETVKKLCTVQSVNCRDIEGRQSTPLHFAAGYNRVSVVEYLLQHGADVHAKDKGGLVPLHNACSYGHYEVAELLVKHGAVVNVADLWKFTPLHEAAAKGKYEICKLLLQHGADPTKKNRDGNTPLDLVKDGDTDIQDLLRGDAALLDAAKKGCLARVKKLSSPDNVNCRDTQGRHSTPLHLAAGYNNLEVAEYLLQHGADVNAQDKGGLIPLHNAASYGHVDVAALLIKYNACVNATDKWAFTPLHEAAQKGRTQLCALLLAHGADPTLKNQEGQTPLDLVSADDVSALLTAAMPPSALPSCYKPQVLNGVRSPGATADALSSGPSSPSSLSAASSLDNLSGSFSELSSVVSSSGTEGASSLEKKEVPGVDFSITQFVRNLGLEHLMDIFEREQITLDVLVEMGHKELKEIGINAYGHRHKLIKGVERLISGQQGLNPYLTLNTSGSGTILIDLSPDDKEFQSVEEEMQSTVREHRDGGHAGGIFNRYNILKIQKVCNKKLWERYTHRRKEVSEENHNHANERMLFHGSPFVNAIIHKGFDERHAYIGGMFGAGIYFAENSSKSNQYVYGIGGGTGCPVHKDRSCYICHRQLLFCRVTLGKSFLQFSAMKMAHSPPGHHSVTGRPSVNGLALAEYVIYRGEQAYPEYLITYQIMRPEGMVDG
T1 sequence (O95271 whole entry): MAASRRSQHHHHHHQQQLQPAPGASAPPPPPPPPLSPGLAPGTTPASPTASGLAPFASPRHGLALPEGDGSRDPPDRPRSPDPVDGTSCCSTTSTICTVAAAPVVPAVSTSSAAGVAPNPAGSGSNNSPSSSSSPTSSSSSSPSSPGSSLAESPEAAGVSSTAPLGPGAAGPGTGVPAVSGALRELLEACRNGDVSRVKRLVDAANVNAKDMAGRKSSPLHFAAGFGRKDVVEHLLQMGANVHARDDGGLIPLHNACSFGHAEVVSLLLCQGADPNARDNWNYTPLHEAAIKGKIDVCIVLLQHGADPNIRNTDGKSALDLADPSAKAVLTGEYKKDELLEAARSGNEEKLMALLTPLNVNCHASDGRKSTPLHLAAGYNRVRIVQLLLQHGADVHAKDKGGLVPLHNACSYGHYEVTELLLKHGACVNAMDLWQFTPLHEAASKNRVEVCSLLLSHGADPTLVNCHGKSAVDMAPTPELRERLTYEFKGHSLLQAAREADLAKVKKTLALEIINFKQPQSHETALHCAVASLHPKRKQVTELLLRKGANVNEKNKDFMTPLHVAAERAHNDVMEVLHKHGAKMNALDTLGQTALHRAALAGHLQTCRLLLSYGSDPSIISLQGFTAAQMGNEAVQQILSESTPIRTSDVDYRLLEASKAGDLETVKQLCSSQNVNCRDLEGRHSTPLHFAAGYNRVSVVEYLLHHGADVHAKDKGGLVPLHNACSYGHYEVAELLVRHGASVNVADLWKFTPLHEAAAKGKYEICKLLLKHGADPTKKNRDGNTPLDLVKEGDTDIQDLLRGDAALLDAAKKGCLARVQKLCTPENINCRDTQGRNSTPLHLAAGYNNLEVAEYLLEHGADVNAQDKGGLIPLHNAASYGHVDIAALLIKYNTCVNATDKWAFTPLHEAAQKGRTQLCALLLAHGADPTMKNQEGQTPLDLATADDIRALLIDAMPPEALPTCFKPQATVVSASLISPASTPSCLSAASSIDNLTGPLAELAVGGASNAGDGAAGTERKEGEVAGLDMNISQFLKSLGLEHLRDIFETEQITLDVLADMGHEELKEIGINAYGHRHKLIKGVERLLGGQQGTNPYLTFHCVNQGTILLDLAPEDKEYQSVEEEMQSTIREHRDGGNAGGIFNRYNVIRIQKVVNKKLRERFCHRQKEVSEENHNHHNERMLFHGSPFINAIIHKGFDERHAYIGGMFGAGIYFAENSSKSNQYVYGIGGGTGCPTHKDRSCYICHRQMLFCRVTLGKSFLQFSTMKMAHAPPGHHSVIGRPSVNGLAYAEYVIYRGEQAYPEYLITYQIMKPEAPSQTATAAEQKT
Description: Inhibition of TNKS/TNKS2 (unknown origin) expressed in human DLD1 cells assessed as reduction in Wnt-signaling measured after 24 hrs by TCF-luciferase reporter gene assay

[2] = Protein binding in mouse plasma assessed as unbound fraction at 1 uM measured after 24 hrs by LC-MS/MS analysis; format: ADME, cell-free
[3] = biological target: T2, Poly [ADP-ribose] polymerase tankyrase-1 (Homo sapiens, UniProt O95271)
T2 sequence (O95271 whole entry): T1 sequence (O95271 whole entry)
Description: Inhibition of recombinant human N-terminal TEV cleavage site-fused/FLAG-poly his-tagged TNKS SAM-PARP domain (1024 to 1327 residues) expressed in Escherichia coli assessed as reduction in auto-PARylation preincubated for 10 mins followed by biotinylated-NAD+ addition and measured after 45 mins by ELISA

[4] = physchem; conditions: phosphate buffered saline, pH 7.4
[5] = Stability in mouse liver microsomes assessed as parent compound remaining at 1 uM measured after 30 mins in presence of NADPH by LC-MS/MS analysis; format: ADME, Microsome; conditions: read-out: Stability
[6] = Stability in rat liver microsomes assessed as parent compound remaining at 1 uM measured after 60 mins in presence of NADPH by LC-MS/MS analysis; format: ADME, Microsome; conditions: read-out: Stability
[7] = Stability in human liver microsomes assessed as parent compound remaining at 1 uM measured after 60 mins in presence of NADPH by LC-MS/MS analysis; format: ADME, Microsome; conditions: read-out: Stability
[8] = Protein binding in human plasma assessed as unbound fraction at 1 uM measured after 24 hrs by LC-MS/MS analysis; format: ADME, cell-free
[9] = Stability in mouse liver microsomes assessed as parent compound remaining at 1 uM measured after 60 mins in presence of NADPH by LC-MS/MS analysis; format: ADME, Microsome; conditions: read-out: Stability
[10] = Stability in human liver microsomes assessed as parent compound remaining at 1 uM measured after 30 mins in presence of NADPH by LC-MS/MS analysis; format: ADME, Microsome; conditions: read-out: Stability
[11] = biological target: T1, Tankyrase 1/2; conditions: hek293
Description: Inhibition of TNKS/TNKS2 (unknown origin) expressed in HEK293 cells assessed as reduction in Wnt-signaling measured after 24 hrs by TCF-luciferase reporter gene assay

[12] = Stability in rat liver microsomes assessed as parent compound remaining at 1 uM measured after 30 mins in presence of NADPH by LC-MS/MS analysis; format: ADME, Microsome; conditions: read-out: Stability
[13] = biological target: T3, Poly [ADP-ribose] polymerase tankyrase-2 (Homo sapiens, UniProt Q9H2K2); assay: Inhibition of recombinant human N-terminal TEV cleavage site-fused/FLAG-poly his-tagged TNKS2 ARC5-SAM-PARP domain (613 to 1166 residues) expressed in Escherichia coli assessed as reduction in auto-PARylation preincubated for 10 mins followed by biotinylated-NAD+ addition and measured after 45 mins by ELISA
T3 sequence (Q9H2K2 whole entry): T1 sequence (Q9H2K2 whole entry)

[14] = Permeability of the compound measured after 4 hrs by PAMPA; format: ADME; conditions: read-out: permeability
[15] = system: COLO 320DM; assay: Antiproliferative activity against human COLO320DM cells assessed as inhibition of cell growth measured after 4 days by CellTiter-Glo assay; format: functional; conditions: 96 h
[16] = system: MDR1; assay: Efflux ratio of permeability across basolateral to apical side over apical to basolateral side in MDCK2-MDR1 cells; format: ADME, cell-based, Canis lupus familiaris; conditions: dog, MDCK-MDR1
[17] = Net efflux ratio of permeability across basolateral to apical side over apical to basolateral side in MDCK2-MDR1 cells to MDCK2 cells; format: ADME, cell-based, Canis lupus familiaris; conditions: dog, mdck
[18] = Efflux ratio of permeability across basolateral to apical side over apical to basolateral side in MDCK2 cells; format: ADME, cell-based, Canis lupus familiaris, MDCK-II; conditions: dog, mdck

SMILES	IC50 [1] [nM]	fraction unbound at 24 h, 1 µM [2]	IC50 [3] [nM]	solubility at 1 h, 200 µM [4] [µg/mL]	remaining at 0.5 h, 1 µM [5] [%]	remaining at 1 h, 1 µM [6] [%]	remaining at 1 h, 1 µM [7] [%]	fraction unbound at 24 h, 1 µM [8]	remaining at 1 h, 1 µM [9] [%]	remaining at 0.5 h, 1 µM [10] [%]	IC50 [11] [nM]	remaining at 0.5 h, 1 µM [12] [%]	IC50 [13] [nM]	Papp at 4 h [14] [×10⁻⁶ cm/s]	GI50 [15] [nM]	efflux ratio [16]	Ratio [17]	efflux ratio [18]
CN1CCCc2c1nc(N1CCC3(CC1)CN(CCO)c1cc(F)cc(F)c13)[nH]c2=O	7	0.002	13.6	40.2 (≈ 93.2 µM)	0.3	0.2	1.4	0.005	0.2	7.4	2.7	0.4	21.4	3.3	250	–	–	–
CN(C)c1cc(F)c2c(c1)N(C)C(=O)C21CCN(c2nc3c(c(=O)[nH]2)CCCN3C)CC1	20.7	–	6.3	7.4 (≈ 16.8 µM)	–	–	1.8	–	1.8	–	4.6	–	13	–	1170	2.7	2.5	1.1
CN1CCCc2c1nc(N1CCC3(CC1)C(=O)N(C)c1cc(OCCN4CCCC4)cc(F)c13)[nH]c2=O	6.6	–	11.1	100 (≈ 196 µM)	–	–	61.5	–	100	–	0.4	–	12.4	–	1080	21.9	3.1	7.1
CN1CCCc2c1nc(N1CCC3(CC1)C(=O)N(C)c1cc(F)cc(F)c13)[nH]c2=O	14.4	–	7.9	16 (≈ 38.5 µM)	–	–	0.3	–	0	–	3.9	–	10.7	–	220	3.1	2.8	1.1
CN1CCCc2c1nc(N1CCC3(CC1)C(=O)N(CC(O)CO)c1cc(F)cc(F)c13)[nH]c2=O (configuration not stated)	14.5	–	8.9	88.2 (≈ 185 µM)	–	–	23.9	–	42.7	–	0.7	–	12.5	–	710	43.7	3.9	11.2
CN1CCCc2c1nc(N1CCC3(CC1)C(=O)N(C)c1cc(OCCN4CCCCC4)cc(F)c13)[nH]c2=O	5	–	12	101 (≈ 192 µM)	–	–	18.5	–	56	–	2.5	–	33.3	–	1090	6.1	1.9	3.2
CN1CCCc2c1nc(N1CCC3(CC1)C(=O)N(CC#N)c1cc(F)cc(F)c13)[nH]c2=O	1.6	–	3.7	50.5 (≈ 115 µM)	–	–	6.1	–	1.2	–	0.2	–	6.1	–	440	11.7	5.1	2.3
CN1CCCc2c1nc(N1CCC3(CC1)C(=O)N(C)c1cc(OCCO)cc(F)c13)[nH]c2=O	2.3	–	3.5	75.1 (≈ 164 µM)	–	–	19.8	–	0.7	–	0.8	–	4.7	–	160	14.9	2.4	6.2
